From patent US9562031B1, “Phenethyldihydrobenzodioxolones and methods of use” (Sequoia Sciences, Inc., priority 2015, dated 2017)
Where a name gives a salt, the structure may show the parent alone.

Legend:
HCT-116 cells = test: NCI-60 panel antiproliferation, HCT-116; type: cell-based, human; settings: NCI 60-cell panel
Experimental: (§1) Bifidenone and Compound 37 were tested for antiproliferation activity against the NCI-60 panel of cancer cell lines. COMPARE analysis was then conducted to compare the activity “fingerprint” of bifidenone to those of known classes of compounds (Zhou, B.-N., Hoch, J. M., Johnson, R. K., Mattern, M. R., Eng, W.-K., Ma, J., Hecht, S. M., Newman, D. J., Kingston, D. G. I., 2000. Use of COMPARE Analysis to Discover New Natural Product Drugs: Isolation of Camptothecin and 9-Methoxycamptothecin from a New Source. Journal of Natural Products 63, 1273-1276.).

K-562 cells = test: NCI-60 panel antiproliferation, K-562; type: cell-based, human; settings: NCI 60-cell panel
Experimental: as §1

HL-60 cells = test: NCI-60 panel antiproliferation, HL-60; type: cell-based, human; settings: NCI 60-cell panel
Experimental: as §1

MALME-3M cells = test: NCI-60 panel antiproliferation, MALME-3M; type: cell-based, human; settings: NCI 60-cell panel
Experimental: as §1

EKVX cells = test: NCI-60 panel antiproliferation, EKVX; type: cell-based, human; settings: NCI 60-cell panel
Experimental: as §1

T-47D cells = test: NCI-60 panel antiproliferation, T-47D; type: cell-based, human; settings: NCI 60-cell panel
Experimental: as §1

Hs578T cells = test: NCI-60 panel antiproliferation, Hs578T; type: cell-based, human; settings: NCI 60-cell panel
Experimental: as §1

BT-549 cells = test: NCI-60 panel antiproliferation, BT-549; type: cell-based, human; settings: NCI 60-cell panel
Experimental: as §1

U251 cells = test: NCI-60 panel antiproliferation, U251; type: cell-based, human; settings: NCI 60-cell panel
Experimental: as §1

OVCAR-8 cells = test: NCI-60 panel antiproliferation, OVCAR-8; type: cell-based, human; settings: NCI 60-cell panel
Experimental: as §1

LOX IMVI cells = test: NCI-60 panel antiproliferation, LOX IMVI; type: cell-based, human; settings: NCI 60-cell panel
Experimental: as §1

SF-539 cells = test: NCI-60 panel antiproliferation, SF-539; type: cell-based, human; settings: NCI 60-cell panel
Experimental: as §1

A549 cells = test: NCI-60 panel antiproliferation, A549; type: cell-based, human; settings: NCI 60-cell panel
Experimental: as §1

NCI-H322M cells = test: NCI-60 panel antiproliferation, NCI-H322M; type: cell-based, human; settings: NCI 60-cell panel
Experimental: as §1

ACHN cells = test: NCI-60 panel antiproliferation, ACHN; type: cell-based, human; settings: NCI 60-cell panel
Experimental: as §1

SW-620 cells = test: NCI-60 panel antiproliferation, SW-620; type: cell-based, human; settings: NCI 60-cell panel
Experimental: as §1

SNB-75 cells = test: NCI-60 panel antiproliferation, SNB-75; type: cell-based, human; settings: NCI 60-cell panel
Experimental: as §1

A498 cells = test: NCI-60 panel antiproliferation, A498; type: cell-based, human; settings: NCI 60-cell panel
Experimental: as §1

MCF-7 cells = test: NCI-60 panel antiproliferation, MCF-7; type: cell-based, human; settings: NCI 60-cell panel
Experimental: as §1

786-0 cells = test: NCI-60 panel antiproliferation, 786-0; type: cell-based, human; settings: NCI 60-cell panel
Experimental: as §1

HCT-15 cells = test: NCI-60 panel antiproliferation, HCT-15; type: cell-based, human; settings: NCI 60-cell panel
Experimental: as §1

CCRF-CEM cells = test: NCI-60 panel antiproliferation, CCRF-CEM; type: cell-based, human; settings: NCI 60-cell panel
Experimental: as §1

IGR-OV1 cells = test: NCI-60 panel antiproliferation, IGR-OV1; type: cell-based, human; settings: NCI 60-cell panel
Experimental: as §1

MDA-MB-435 cells = test: NCI-60 panel antiproliferation, MDA-MB-435; type: cell-based, human; settings: NCI 60-cell panel
Experimental: as §1

SN12C cells = test: NCI-60 panel antiproliferation, SN12C; type: cell-based, human; settings: NCI 60-cell panel
Experimental: as §1

NCI-H23 cells = test: NCI-60 panel antiproliferation, NCI-H23; type: cell-based, human; settings: NCI 60-cell panel
Experimental: as §1

SK-MEL-28 cells = test: NCI-60 panel antiproliferation, SK-MEL-28; type: cell-based, human; settings: NCI 60-cell panel
Experimental: as §1

SK-Mel-2 cells = test: NCI-60 panel antiproliferation, SK-MEL-2; type: cell-based, human; settings: NCI 60-cell panel
Experimental: as §1

HT29 cells = test: NCI-60 panel antiproliferation, HT29; type: cell-based, human; settings: NCI 60-cell panel
Experimental: as §1

HCC-2998 cells = test: NCI-60 panel antiproliferation, HCC-2998; type: cell-based, human; settings: NCI 60-cell panel
Experimental: as §1

NCI-H460 cells = test: NCI-60 panel antiproliferation, NCI-H460; type: cell-based, human; settings: NCI 60-cell panel
Experimental: as §1

UACC-62 cells = test: NCI-60 panel antiproliferation, UACC-62; type: cell-based, human; settings: NCI 60-cell panel
Experimental: as §1

DU-145 cells = test: NCI-60 panel antiproliferation, DU-145; type: cell-based, human; settings: NCI 60-cell panel
Experimental: as §1

UO-31 cells = test: NCI-60 panel antiproliferation, UO-31; type: cell-based, human; settings: NCI 60-cell panel
Experimental: as §1

HOP-62 cells = test: NCI-60 panel antiproliferation, HOP-62; type: cell-based, human; settings: NCI 60-cell panel
Experimental: as §1

SF-268 cells = test: NCI-60 panel antiproliferation, SF-268; type: cell-based, human; settings: NCI 60-cell panel
Experimental: as §1

M14 cells = test: NCI-60 panel antiproliferation, M14; type: cell-based, human; settings: NCI 60-cell panel
Experimental: as §1

NCI-H522 cells = test: NCI-60 panel antiproliferation, NCI-H522; type: cell-based, human; settings: NCI 60-cell panel
Experimental: as §1

SNB-19 cells = test: NCI-60 panel antiproliferation, SNB-19; type: cell-based, human; settings: NCI 60-cell panel
Experimental: as §1

MDA-MB-468 cells = test: NCI-60 panel antiproliferation, MDA-MB-468; type: cell-based, human; settings: NCI 60-cell panel
Experimental: as §1

MDA-MB-231 cells = test: NCI-60 panel antiproliferation, MDA-MB-231; type: cell-based, human; settings: NCI 60-cell panel
Experimental: as §1

MOLT-4 cells = test: NCI-60 panel antiproliferation, MOLT-4; type: cell-based, human; settings: NCI 60-cell panel
Experimental: as §1

RXF-393 cells = test: NCI-60 panel antiproliferation, RXF-393; type: cell-based, human; settings: NCI 60-cell panel
Experimental: as §1

OVCAR-5 cells = test: NCI-60 panel antiproliferation, OVCAR-5; type: cell-based, human; settings: NCI 60-cell panel
Experimental: as §1

TK-10 cells = test: NCI-60 panel antiproliferation, TK-10; type: cell-based, human; settings: NCI 60-cell panel
Experimental: as §1

SR cells = test: NCI-60 panel antiproliferation, SR; type: cell-based, human; settings: NCI 60-cell panel
Experimental: as §1

KM12 cells = test: NCI-60 panel antiproliferation, KM12; type: cell-based, human; settings: NCI 60-cell panel
Experimental: as §1

SK-Mel-5 cells = test: NCI-60 panel antiproliferation, SK-MEL-5; type: cell-based, human; settings: NCI 60-cell panel
Experimental: as §1

SK-OV-3 cells = test: NCI-60 panel antiproliferation, SK-OV-3; type: cell-based, human; settings: NCI 60-cell panel
Experimental: as §1

NCI-H226 cells = test: NCI-60 panel antiproliferation, NCI-H226; type: cell-based, human; settings: NCI 60-cell panel
Experimental: as §1

Caki-1 cells = test: NCI-60 panel antiproliferation, Caki-1; type: cell-based, human; settings: NCI 60-cell panel
Experimental: as §1

SF-295 cells = test: NCI-60 panel antiproliferation, SF-295; type: cell-based, human; settings: NCI 60-cell panel
Experimental: as §1

COLO205 cells = test: NCI-60 panel antiproliferation, COLO205; type: cell-based, human; settings: NCI 60-cell panel
Experimental: as §1

UACC-257 cells = test: NCI-60 panel antiproliferation, UACC-257; type: cell-based, human; settings: NCI 60-cell panel
Experimental: as §1

OVCAR-3 cells = test: NCI-60 panel antiproliferation, OVCAR-3; type: cell-based, human; settings: NCI 60-cell panel
Experimental: as §1

RPMI-8226 cells = test: NCI-60 panel antiproliferation, RPMI-8226; type: cell-based, human; settings: NCI 60-cell panel
Experimental: as §1

HOP-92 cells = test: NCI-60 panel antiproliferation, HOP-92; type: cell-based, human; settings: NCI 60-cell panel
Experimental: as §1

PC-3 cells = test: NCI-60 panel antiproliferation, PC-3; type: cell-based, human; settings: NCI 60-cell panel
Experimental: as §1

NCI-ADR/RES cells = test: NCI-60 panel antiproliferation, NCI-ADR/RES; type: cell-based, human; settings: NCI 60-cell panel
Experimental: as §1

OVCAR-4 cells = test: NCI-60 panel antiproliferation, OVCAR-4; type: cell-based, human; settings: NCI 60-cell panel
Experimental: as §1

NCI-H460 or M14 cells = test: in vitro antiproliferation assay (cell line not stated for the salt); type: cell-based; settings: Homo sapiens, HCl salt
Experimental: For the antiproliferation assay, NCI-H460 (large cell lung carcinoma) or M14 (amelanotic melanoma) cells were grown in RPMI-1640 with 10% FBS supplemented with L-glutamine and HEPES. Cells were seeded into 96-well plates at 5×10^2 to 5×10^4 cells/well and allowed to adhere overnight; the medium was then removed. A stock solution of test compound in DMSO was diluted in medium to generate a series of working solutions. Aliquots (100 μl) of the working solutions were then added to the appropriate test wells to expose cells to the final concentrations of compound in a total volume of 100 μl. Seven different concentrations were tested, with 2-5 wells per concentration. Camptothecin was used as a positive control; wells containing vehicle without compound were used as negative controls. Plates were kept for 72 h in a 37° C., 5% CO2 incubator. After incubation, viable cells were detected with the CELLTITER 96 AQueous Non-Radioactive Cell Proliferation Assay (Promega), and IC50 values were determined using GraphPad Prism 5 software.
As stated herein, the invention also includes compounds and their salts. The HCl salt of compound 66 was prepared, and the salt retained activity in the in vitro antiproliferation assay (IC50 5-7 μM).

## C=CC[C@H]1C[C@]2([C@@H](C)Cc3ccc(OC)c(OC)c3)OCOC2=CC1=O [bifidenone, Bifidenone]
HCT-116 cells
  IC50: 490 nM
K-562 cells
  IC50: 180 nM
HL-60 cells
  IC50: 120 nM
MALME-3M cells
  IC50: 90 nM
EKVX cells
  IC50: 280 nM
T-47D cells
  IC50: 250 nM
Hs578T cells
  IC50: 210 nM
BT-549 cells
  IC50: 180 nM
U251 cells
  IC50: 610 nM
OVCAR-8 cells
  IC50: 470 nM
LOX IMVI cells
  IC50: 390 nM
SF-539 cells
  IC50: 260 nM
A549 cells
  IC50: 260 nM
NCI-H322M cells
  IC50: 460 nM
ACHN cells
  IC50: 850 nM
SW-620 cells
  IC50: 130 nM
SNB-75 cells
  IC50: 270 nM
A498 cells
  IC50: 460 nM
MCF-7 cells
  IC50: 170 nM
786-0 cells
  IC50: 320 nM
HCT-15 cells
  IC50: 230 nM
CCRF-CEM cells
  IC50: 150 nM
IGR-OV1 cells
  IC50: 420 nM
MDA-MB-435 cells
  IC50: 70 nM
SN12C cells
  IC50: 330 nM
NCI-H23 cells
  IC50: 610 nM
SK-MEL-28 cells
  IC50: 130 nM
SK-Mel-2 cells
  IC50: 130 nM
HT29 cells
  IC50: 310 nM
HCC-2998 cells
  IC50: 1410 nM
NCI-H460 cells
  IC50: 320 nM
UACC-62 cells
  IC50: 140 nM
DU-145 cells
  IC50: 840 nM
UO-31 cells
  IC50: 570 nM
HOP-62 cells
  IC50: 320 nM
SF-268 cells
  IC50: 220 nM
M14 cells
  IC50: 200 nM
NCI-H522 cells
  IC50: 150 nM
SNB-19 cells
  IC50: 300 nM
MDA-MB-468 cells
  IC50: 300 nM
MDA-MB-231 cells
  IC50: 260 nM
MOLT-4 cells
  IC50: 170 nM
RXF-393 cells
  IC50: 780 nM
OVCAR-5 cells
  IC50: 520 nM
TK-10 cells
  IC50: 330 nM
SR cells
  IC50: 80 nM
KM12 cells
  IC50: 320 nM
SK-Mel-5 cells
  IC50: 250 nM
SK-OV-3 cells
  IC50: 270 nM
NCI-H226 cells
  IC50: 810 nM
Caki-1 cells
  IC50: 100 nM
SF-295 cells
  IC50: 410 nM
COLO205 cells
  IC50: 400 nM
UACC-257 cells
  IC50: 160 nM
OVCAR-3 cells
  IC50: 170 nM
RPMI-8226 cells
  IC50: 250 nM
HOP-92 cells
  IC50: 240 nM
PC-3 cells
  IC50: 190 nM
NCI-ADR/RES cells
  IC50: 170 nM
OVCAR-4 cells
  IC50: 290 nM

## COc1cc(F)c(C[C@H](C)[C@]23C[C@H](Cc4ccncc4)C(=O)C=C2OCO3)cc1O [HCl salt of compound 66, (6S,7aR)-7a-((S)-1-(2-fluoro-5-hydroxy-4-methoxyphenyl)propan-2-yl)-6-(pyridin-4-ylmethyl)-7,7a-dihydrobenzo[d][1,3]dioxol-5(6H)-one hydrochloride]
NCI-H460 or M14 cells
  IC50: 5000 to 7000 nM
